The results in this text go back to patent publication US8288367B2, “Substituted estratriene derivatives as 17BETA HSD inhibitors” (Solvay Pharmaceuticals GmBH, priority 2006, dated 2012).

Test [1] deals with T1, recombinant human 17β-HSD2 (Homo sapiens, UniProt P37059).
T1 construct: made in house; host or cells: Sf9 insect cells (baculovirus, Bac to Bac Expression System)
T1 sequence (P37059 1-387): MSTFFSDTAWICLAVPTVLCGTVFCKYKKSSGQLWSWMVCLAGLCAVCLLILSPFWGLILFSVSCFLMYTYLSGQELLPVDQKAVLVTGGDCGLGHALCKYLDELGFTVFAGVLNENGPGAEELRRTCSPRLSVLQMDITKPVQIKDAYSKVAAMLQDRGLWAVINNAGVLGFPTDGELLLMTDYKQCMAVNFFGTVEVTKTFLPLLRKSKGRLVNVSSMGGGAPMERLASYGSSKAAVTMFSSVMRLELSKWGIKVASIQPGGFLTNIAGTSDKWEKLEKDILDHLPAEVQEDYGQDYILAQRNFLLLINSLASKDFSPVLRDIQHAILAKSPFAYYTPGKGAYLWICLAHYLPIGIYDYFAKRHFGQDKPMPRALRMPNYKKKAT
Description: Recombinant 17β-HSD2 assay (HPLC, 3H-estradiol conversion). The class given is biochemical. To be noted: 50 nM estradiol, 1 mM β-NAD, read-out: Inhibition of rec. 17β-HSD2; for inhibition at 0.1 µM: 100 nM compound; for inhibition at 1 µM: 1 μm compound. As for the experimental part: 17β-HSD1 or 17β-HSD2 purification: Recombinant 17β-HSD1 and 17β-HSD2 baculoviruses were generated by the “Bac to Bac Expression System” (Invitrogen). Recombinant 17β-HSD1 or 17β-HSD2 bacmids were transfected to Sf9 insect cells using “Cellfectin Reagent” (Invitrogen). 60 h later cells were harvested; the fractions including 17β-HSD1 or 17β-HSD2 were isolated as described by Puranen et al. (1994). Aliquots were stored frozen until determination of enzymatic activity. Recombinant 17β-HSD2 assay: Recombinant 17β-HSD2 assay was performed as described for 17β-HSD1 but with following modifications: 6 μg/ml of recombinant protein homogenate, 50 nM Estradiol (Sigma, E8875) as a substrate, 800 000 cpm/ml ^3H-estradiol (PerkinElmer, NET317) as a tracer substrate and 1 mM β-NAD (Sigma N7004) as a co-factor were used. Total radioactivity for estrone and estradiol were determined in each sample and percent inhibition of estrone conversion by the respective inhibitor was calculated. For the calculation of % inhibition the following formula was used: [formula] Percent inhibition was calculated as follows: % inhibition=100−% conversion

Test [2] addresses T2, recombinant human 17β-HSD1 (Homo sapiens, UniProt P14061).
T2 construct: made in house; host or cells: Sf9 insect cells (baculovirus, Bac to Bac Expression System)
T2 sequence (P14061 1-328): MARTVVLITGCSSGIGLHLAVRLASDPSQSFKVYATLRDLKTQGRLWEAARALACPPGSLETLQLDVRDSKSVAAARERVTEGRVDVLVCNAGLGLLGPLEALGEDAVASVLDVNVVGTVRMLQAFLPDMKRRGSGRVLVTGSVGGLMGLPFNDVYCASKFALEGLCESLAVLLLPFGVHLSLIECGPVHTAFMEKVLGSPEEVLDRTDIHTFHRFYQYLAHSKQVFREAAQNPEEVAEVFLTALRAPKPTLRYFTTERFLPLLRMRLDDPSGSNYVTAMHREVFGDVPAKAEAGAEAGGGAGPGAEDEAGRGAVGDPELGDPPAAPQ
Description: Recombinant 17β-HSD1 assay (HPLC, 3H-estrone conversion). In kind it is biochemical. To be noted: 30 nM estrone, 1 mM NADPH, 30 min RT, read-out: Inhibition of rec. 17β-HSD1; for inhibition at 0.1 µM: 100 nM compound; for inhibition at 1 µM: 0.5 h, 1 μm compound. As for the experimental part: 17β-HSD1 or 17β-HSD2 purification: Recombinant 17β-HSD1 and 17β-HSD2 baculoviruses were generated by the “Bac to Bac Expression System” (Invitrogen). Recombinant 17β-HSD1 or 17β-HSD2 bacmids were transfected to Sf9 insect cells using “Cellfectin Reagent” (Invitrogen). 60 h later cells were harvested; the fractions including 17β-HSD1 or 17β-HSD2 were isolated as described by Puranen et al. (1994). Aliquots were stored frozen until determination of enzymatic activity.
Recombinant 17β-HSD1 assay: Recombinant protein homogenate (0.1 μg/ml) was incubated in 20 mM KH2PO4 pH 7.4 reaction buffer, including protease inhibitors (Complete Protease Inhibitor Cocktail tablet, Roche Diagnostics, 1697498), with 30 nM estrone (Sigma, E9750) as substrate, 800 000 cpm/ml ^3H-estrone (PerkinElmer, NET319001MC) as a tracer substrate, and 1 mM NADPH (Sigma, N1630) as a co-factor for 30 min at RT, in the presence of potential inhibitors at concentrations of 1 μM or 0.1 μM. Inhibitor stock solutions were prepared in DMSO. The enzyme reaction was stopped by addition of trichloroacetic acid (1% final concentration). Samples were centrifuged in a microtiter plate at 4000 rpm for 10 min. Supernatants were applied to reverse phase HPLC on a Waters Symmetry C18 column, equipped with a Waters Sentry Guard column. Isocratic HPLC runs were performed at RT at a flow rate of 1 ml/min of acetonitrile:water 48:52 as running solvent. Radioactivity was monitored in the eluate by a Packard Flow Scintillation Analyzer. Total radioactivity for estrone and estradiol were determined in each sample and percent inhibition of estradiol conversion by the respective inhibitor was calculated
For the calculation of % inhibition the following formula was used:
[formula] Percent inhibition was calculated as follows: % inhibition=100−% conversion

In general, inhibition refers to the drop in the measured response relative to a control, in per cent. Take `C[C@]12CC[C@@H]3c4ccc(B(O)O)cc4CC[C@H]3[C@@H]1[C@H](CCC(=O)Nc1ccc3c(c1)OCO3)CC2=O` [Compound 45, [15beta-[3-(1,3-benzodioxol-5-ylamino)-3-oxopropyl]-17-oxoestra-1(10),2,4-trien-3-yl]boronic acid]: the inhibition at 0.1 µM in test [1] was -1%; in test [2], 49%. Further, the inhibition at 1 µM was -1.1% in test [1] and 66% in test [2].
On the same counts, the results for `C[C@]12CC[C@@H]3c4ccc(B(O)O)cc4CC[C@H]3[C@@H]1[C@H](CCC(=O)NC1CCCCC1)CC2(F)F` [Compound 59, [15beta-[3-(cyclohexylamino)-3-oxopropyl]-17,17-difluoroestra-1(10),2,4-trien-3-yl]boronic acid] are 0.6%, 69%, 15.2% and 84%.
With `C[C@]12CC[C@@H]3c4ccc(B(O)O)cc4CC[C@H]3[C@@H]1[C@H](CCC(=O)NCc1ccc(F)cc1F)CC2(F)F` [Compound 65, [15beta-{3-[(2,4-difluorobenzyl)amino]-3-oxopropyl}-17,17-difluoroestra-1(10),2,4-trien-3-yl]boronic acid], in test [1], the inhibition at 0.1 µM was 5.8% and the inhibition at 1 µM was 9.8%. In test [2], the inhibition at 0.1 µM was determined as 32% and the inhibition at 1 µM was 63%.
The matching figures for `Cc1cnc(NC(=O)CC[C@@H]2CC(F)(F)[C@@]3(C)CC[C@@H]4c5ccc(B(O)O)cc5CC[C@H]4[C@H]23)s1` [Compound 58, [17,17-difluoro-15β-{3-[(5-methyl-1,3-thiazol-2-yl)amino]-3-oxopropyl}estra-1(10),2,4-trien-3-yl]boronic acid]: 6.8%, 11.6%, 23% and 55%.
On the same counts, the results for `C[C@]12CC[C@@H]3c4ccc(B(O)O)cc4CC[C@H]3[C@@H]1[C@H](CCC(=O)N1CCOCC1)CC2=O` [Compound 33, [15beta-(3-morpholin-4-yl-3-oxopropyl)-17-oxoestra-1(10),2,4-trien-3-yl]boronic acid] are -2.3%, -1.1%, 20% and 59%.
The matching figures for `C[C@]12CC[C@@H]3c4ccc(B(O)O)cc4CC[C@H]3[C@@H]1[C@@H](CCCC(=O)NCc1ccc3c(c1)OCO3)CC2(F)F` [Compound 50, [15alpha-{4-[(1,3-benzodioxol-5-ylmethyl)amino]-4-oxobutyl}-17,17-difluoroestra-1(10),2,4-trien-3-yl]boronic acid]: 8%, 32.8%, 40% and 57%.
On to `C[C@]12CC[C@@H]3c4ccc(B(O)O)cc4CC[C@H]3[C@@H]1[C@@H](CCCC(=O)NCc1ccccc1)CC2=O` [Compound 23, [15alpha-[4-(benzylamino)-4-oxobutyl]-17-oxoestra-1(10),2,4-trien-3-yl]boronic acid], for which, in test [1], the inhibition at 0.1 µM turned out to be 1.8% and the inhibition at 1 µM was determined as 0.4%. In test [2], the inhibition at 0.1 µM was determined as 76% and the inhibition at 1 µM was 54%.
Consider `Cc1cnc(NC(=O)CC[C@@H]2CC(=O)[C@@]3(C)CC[C@@H]4c5ccc(C(N)=O)cc5CC[C@H]4[C@H]23)s1` [Compound 3, 15β-{3-[(5-methyl-1,3-thiazol-2-yl)amino]-3-oxopropyl}-17-oxoestra-1(10),2,4-triene-3-carboxamide], for which, in test [1], the inhibition at 0.1 µM was -1.8% and the inhibition at 1 µM is 8.6%. Besides, in test [2], the inhibition at 0.1 µM stood at 20% and the inhibition at 1 µM was determined as 74%.
The matching figures for `C[C@]12CC[C@@H]3c4ccc(B(O)O)cc4CC[C@H]3[C@@H]1[C@H](CCC(=O)N1CCCCC1)CC2=O` [Compound 35, [17-oxo-15beta-(3-oxo-3-piperidin-1-ylpropyl)estra-1(10),2,4-trien-3-yl]boronic acid]: 4%, 1.5%, 57% and 56%.
The matching figures for `COc1ccc(CCN(C)C(=O)CCC[C@H]2CC(F)(F)[C@@]3(C)CC[C@@H]4c5ccc(B(O)O)cc5CC[C@H]4[C@H]23)cc1OC` [Compound 51, [15alpha-(4-{[2-(3,4-dimethoxyphenyl)ethyl](methyl)amino}-4-oxobutyl)-17,17-difluoroestra-1(10),2,4-trien-3-yl]boronic acid]: 2.8%, 7.8%, 37% and 62%.
On the same counts, the results for `Cc1cccc2c(CCNC(=O)CC[C@@H]3CC(=O)[C@@]4(C)CC[C@@H]5c6ccc(B(O)O)cc6CC[C@H]5[C@H]34)c[nH]c12` [Compound 30, [15beta-(3-{[2-(7-methyl-1H-indol-3-yl)ethyl]amino}-3-oxopropyl)-17-oxoestra-1(10),2,4-trien-3-yl]boronic acid] are 1.3%, 6.3%, 50% and 56%.
With `CCN(CC)C(=O)CC[C@@H]1CC(=O)[C@@]2(C)CC[C@@H]3c4ccc(B(O)O)cc4CC[C@H]3[C@H]12` [Compound 39, [15beta-[3-(diethylamino)-3-oxopropyl]-17-oxoestra-1(10),2,4-trien-3-yl]boronic acid], in test [1], the inhibition at 0.1 µM came out at 1.8% and the inhibition at 1 µM was -0.6%. In test [2], the inhibition at 0.1 µM stood at 74% and the inhibition at 1 µM stood at 88%.
On the same counts, the results for `C[C@]12CC[C@@H]3c4ccc(B(O)O)cc4CC[C@H]3[C@@H]1[C@@H](CCCC(=O)N1CCOCC1)CC2(F)F` [Compound 47, [17,17-difluoro-15alpha-(4-morpholin-4-yl-4-oxobutyl)estra-1(10),2,4-trien-3-yl]boronic acid] are 3.8%, 12.9%, 10% and 61%.
The matching figures for `Cc1cnc(NC(=O)CC[C@@H]2CC(=O)[C@@]3(C)CC[C@@H]4c5ccc(B(O)O)cc5CC[C@H]4[C@H]23)s1` [Compound 11, [15β-{3-[(5-methyl-1,3-thiazol-2-yl)amino]-3-oxopropyl}-17-oxoestra-1(10),2,4-trien-3-yl]boronic acid]: 4.2%, 5.5%, 62% and 88%.
